# Measurements published in patent publication US12097177B2, “Therapeutic method for cat with chronic kidney disease” (Toray Industries, Inc., priority 2021, dated 2024).
# Like-named read-outs stand apart in the source and are kept apart here.
# Key:
# [1] = test system: kidney of rat progressive glomerulonephritis; conditions: in vivo; cited from earlier work
# cats with CKD [2] = conditions: 20 to 55 μg twice daily, 2 months to 3 years and 3 months; cited from earlier work
# cats with CKD [3] = test: Retrospective observation study: period before kidney death (serum creatinine higher than 10.0 mg/dL), BPS therapy vs No BPS therapy; type: in vivo, cat; conditions: for 3-year kidney survival rate: cats with CKD; for average period before kidney death: Kaplan-Meier
# Protocol: Based on the drug prescription records, cats were divided into two groups: a BPS therapy group consisting of 73 cats; and a BPS therapy-free group consisting of 126 cats.
# In Example 3, the periods before kidney death were compared and analyzed retrospectively. The timing of kidney death was determined with reference to the guidelines on acute kidney insufficiency from the International Renal Interest Society. On the basis of the statement such that “a patient may die within 5 to 10 days despite appropriate conservative therapy without kidney replacement therapy if serum creatinine is higher than 10.0 mg/dL,” specifically, kidney death was determined when serum creatinine of higher than 10.0 mg/dL was recorded in the serum creatinine test. By designating kidney death as the outcome, the start date of treatment as the point of origin for the cats in the BPS therapy group, and the start date of observation as the point of origin for the cats in the No BPS therapy group, the periods (months) before the outcome was observed were recorded. In analysis, the 3-year kidney survival rates (%) of the BPS therapy group and of the No BPS therapy group, the standard errors thereof, the 95% confidence intervals, and the comparison of the 3-year kidney survival rates (%) between the groups were calculated. […] Differences in the kidney survival rates were assessed by the log rank test, the Cochran-Mantel-Haenszel test, by setting significant level at a two-tailed P-value of <0.05.
# Based on the drug prescription records, cats were divided into two groups: a BPS therapy group consisting of 37 cats; and a BPS therapy-free group consisting of 332 cats.
# In Comparative Example 2, the periods before kidney death were compared and analyzed retrospectively. The timing of kidney death was determined with reference to the guidelines on acute kidney insufficiency from the International Renal Interest Society. On the basis of the statement such that “a patient may die within 5 to 10 days despite appropriate conservative therapy without kidney replacement therapy if serum creatinine is higher than 10.0 mg/dL,” specifically, kidney death was determined when serum creatinine of higher than 10.0 mg/dL was recorded in the serum creatinine test. By designating kidney death as the outcome, the start date of treatment as the point of origin for the cats in the BPS therapy group, and the start date of observation as the point of origin for the cats in the No BPS therapy group, the periods (months) before the outcome was observed were recorded. In analysis, the 3-year kidney survival rates (%) of the BPS therapy group and of the No BPS therapy group, the standard errors thereof, the 95% confidence intervals, and the comparison of the 3-year kidney survival rates (%) between the groups were calculated. […] Differences in the kidney survival rates were assessed by the log rank test, the Cochran-Mantel-Haenszel test, by setting significant level at a two-tailed P-value of <0.05.
# [4] = test system: cats with chronic renal failure; conditions: cited from earlier work; for kidney function: 4 cats
# [5] = test system: cats with naturally occurring CKD; conditions: cited from earlier work
# [6] = 55 μg or 6 to 26.4 μg/kg, preferably twice daily for 30 days or longer (WO '949)
compound,measurement,setting,value
"CC#CCC(C)[C@H](O)/C=C/[C@@H]1[C@H]2c3cccc(CCCC(=O)[O-])c3O[C@H]2C[C@H]1O.[Na+] (stereo partly shown) [BPS, Beraprost sodium]",pharmacological activity on renal microvascular network,[1],improving microvascular network failure of kidney tissue
same,clinical symptoms and kidney function,cats with CKD [2],stabilized clinical symptoms and maintained kidney function
same,3-year kidney survival rate,cats with CKD [3]; serum creatinine 1.6 to 2.8 mg/dL (stage 2),90.0%
same,3-year kidney survival rate,"cats with CKD [3]; serum creatinine 2.9 to 5.0 mg/dL (stage 3) or higher than 5.0 mg/dL (stage 4), 10.0 mg/dL or lower",77.1%
same,3-year kidney survival rate of BPS therapy group relative to No BPS therapy group,cats with CKD [3]; stage 2,0.95 times
same,average kidney survival period of BPS therapy group relative to No BPS therapy group,cats with CKD [3]; stage 2,0.97 times
same,average period before kidney death,cats with CKD [3]; stage 2,40.8 months
same,effect on kidney death,cats with CKD [3]; stage 2 before initiation of administration,no effects of BPS administration to inhibit kidney death were observed
same,3-year kidney survival rate of BPS therapy group relative to No BPS therapy group,cats with CKD [3]; stage 3 or 4,1.20 times
same,average kidney survival period of BPS therapy group relative to No BPS therapy group,cats with CKD [3]; stage 3 or 4,1.48 times
same,average period before kidney death,cats with CKD [3]; stage 3 or 4,39.2 months
same,effect on kidney death,cats with CKD [3]; stage 3 or 4 before initiation of administration,effects of BPS administration to inhibit kidney death were observed
same,"kidney function (serum creatinine, BUN, other indicators) and clinical symptoms",[4]; 150 μg twice daily for 6 months,an improvement in kidney function
same,kidney function,"[4]; serum creatinine 1.6 to 2.4 mg/dL (mild), 150 μg twice daily for 6 months",improved kidney function was observed in all of the 4 subject cats
same,kidney function,"[4]; serum creatinine 2.4 to 4.0 mg/dL (moderate), 150 μg twice daily for 6 months","improved kidney function was observed in the 2 subject cats, and retained kidney function was observed in other 2 cats"
same,kidney function,"[4]; serum creatinine higher than 4.0 mg/dL (severe), 150 μg twice daily for 6 months","improved kidney function was observed in a cat, and temporary improvement, followed by impairment, was observed in other 3 cats"
same,uremia,[4]; cat with uremia caused by chronic renal failure (WO '668),improved uremia
same,recovery from chronic renal failure,"[4]; mild chronic renal failure, serum creatinine 1.4 to 2.0 mg/dL, 150 μg twice daily for 6 months",recovery from chronic renal failure was observed in 2 cats
same,adverse side effects,[5]; [6],without adverse side effects
same,kidney function marker values,[5]; [6],inhibit elevation in kidney function marker values such as serum creatinine and BUN
same,tolerability and safety,[5]; 55 μg twice daily for 6 months,well-tolerated and safe
same,serum creatinine,"[5]; 55 μg twice daily for 6 months, vs placebo",inhibited serum creatinine elevation observed in the placebo group
